Laboratory results published in patent publication US8293979B2, “Weed controller metabolism proteins, genes, thereof and use of the same” (Sumitomo Chemical Company, Limited, priority 2001, dated 2012).

How the values were obtained:
Barnyardgrass [1] = assay: Herbicidal activity test, soil surface treatment; format: in vivo, Echinochloa crus-galli; set-up: key: 0: situations in which the condition of sprouting or vegetation at the time of examination of the plant utilized for the test was compared with and showed totally or substantially no difference with that of the untreated application; 10: situations in which the plant completely withered or the sprouting or vegetation was completely suppressed; details: 500 g/ha, sprayed onto the surface of the soil after seeding, investigated after 19 days in a greenhouse
Procedure: (§1) Soil was packed into a round plastic pot having a diameter of 10 cm and depth of 10 cm. Barnyardgrass, Blackgrass, Ivyleaf morningglory were seeded. Five (5) parts of the test compound, 6 parts of sorpol3005X (Toho Chemical Company) and 89 parts of xylene were well mixed to produce an emulsion. A certain amount thereof was diluted with water containing 0.1% (v/v) of a sticking agent at a proportion of 1000 L for 1 hectare and was spread uniformly with a spray-gun onto the surface of the soil. After cultivating the plants for 19 days in a greenhouse, the herbicidal activity was investigated.
(§2) In the above Tables 3 and 4, the strength of the herbicidal activity is shown stepwise as 0, 1, 2, 3, 4, 5, 6, 7, 8, 9, and 10.

[2] = test system: present invention protein (A15); assay: Detection of the ability to convert compound (II) to compound (III), E. coli pKSN1555AF extract; format: in vitro ADME, Streptomyces olivochromogenes IFO 12444; details: 3 ppm of compound (II) labeled with 14C, components A, B, 10 minutes at 30° C.
Procedure: (§3) Reaction solutions of 30 μl were prepared and maintained for 10 minutes at 30° C. The reaction solutions consisted of a 0.1M potassium phosphate buffer (pH7.0) containing 3 ppm of compound (II) labeled with ^14C, 2 mM of β-NADPH (hereinafter, referred to as “component A”) (Oriental Yeast Company), 2 mg/ml of a ferredoxin derived from spinach (hereinafter referred to as “component B”) (Sigma Company), 0.1 U/ml of ferredoxin reductase (hereinafter, referred to as “component C”) (Sigma Company) and 23 μl of the supernatant fraction recovered in Example 32(2). Similarly to Example 4(3), the reaction solutions after the maintenance were extracted with ethyl acetate and the extracted layers were TLC analyzed. […] A spot corresponding to compound (III) was detected from the reaction solution containing E. coli pKSN849AF extract. In contrast, such a spot was not detected from the reaction solution containing E. coli pKSN2 extract.
(§4) Reaction solutions of 30 μl were prepared and maintained for 10 minutes at 30° C. […] The reaction solutions after the maintenance were extracted with ethyl acetate and the extracted layers were TLC analyzed. […] A spot corresponding to compound (III) was detected from the reaction solution containing E. coli pKSN1555AF extract. In contrast, such a spot was not detected from the reaction solution containing E. coli pKSN2 extract.

Barnyardgrass [3] = assay: Herbicidal activity test, foliage treatment; format: in vivo, Echinochloa crus-galli; set-up: key: 0: situations in which the condition of sprouting or vegetation at the time of examination of the plant utilized for the test was compared with and showed totally or substantially no difference with that of the untreated application; 10: situations in which the plant completely withered or the sprouting or vegetation was completely suppressed; details: sprayed onto the foliage of plants cultivated 10 days, investigated after 16 days in a greenhouse
Procedure: as §1, with “seeded and cultivated in a greenhouse for 10 days.” for “seeded.”, “all sides” for “surface”, “foliage from above the plant cultivated in the above pot.” for “soil.”, “16” for “19”, “activity of the test compound” for “activity”
as §2

Blackgrass = assay: Herbicidal activity test, foliage treatment; format: in vivo, Alopercurus myosuroides; set-up: key: 0: situations in which the condition of sprouting or vegetation at the time of examination of the plant utilized for the test was compared with and showed totally or substantially no difference with that of the untreated application; 10: situations in which the plant completely withered or the sprouting or vegetation was completely suppressed; details: sprayed onto the foliage of plants cultivated 10 days, investigated after 16 days in a greenhouse
Procedure: as §1, with “seeded and cultivated in a greenhouse for 10 days.” for “seeded.”, “all sides” for “surface”, “foliage from above the plant cultivated in the above pot.” for “soil.”, “16” for “19”, “activity of the test compound” for “activity”
as §2

[4] = test system: present invention protein (A18); assay: Detection of the ability to convert compound (II) to compound (III), E. coli pKSN646BF extract; format: in vitro ADME, Streptomyces achromogenes IFO 12735; details: 3 ppm of compound (II) labeled with 14C, components A, B, 10 minutes at 30° C.
Procedure: as §3
as §4, with “Similarly to Example 32(3), reaction” for “Reaction”, “pKSN646BF” for “pKSN1555AF”

[5] = test system: present invention protein (A19); assay: Detection of the ability to convert compound (II) to compound (III), E. coli pKSN1502F extract; format: in vitro ADME, Streptomyces griseus IFO 13849T; details: 3 ppm of compound (II) labeled with 14C, components A, B, 10 minutes at 30° C.
Procedure: as §3
as §4, with “Similarly to Example 32(3), reaction” for “Reaction”, “pKSN1502F” for “pKSN1555AF”

## C[C@@H](Oc1cc(-n2c(=O)cc(C(F)(F)F)n(C)c2=O)c(F)cc1Cl)C(=O)O [compound (II)]
Barnyardgrass [1]
  Herbicidal Activity Barnyardgrass: 10
[2]
  spot corresponding to compound (III) labeled with 14C (TLC): detected
Barnyardgrass [3]; 125 g/ha
  Herbicidal Activity Barnyardgrass: 10
Barnyardgrass [3]; 500 g/ha
  Herbicidal Activity Barnyardgrass: 10
Blackgrass; 125 g/ha
  Herbicidal Activity Blackgrass: 10
Blackgrass; 500 g/ha
  Herbicidal Activity Blackgrass: 10
[4]
  spot corresponding to compound (III) labeled with 14C (TLC): detected
[5]
  spot corresponding to compound (III) labeled with 14C (TLC): detected
